For assay [1], the system named is IGR39 cells. Briefly: Matrigel Boyden chamber invasion assay, IGR39. The class given is cell-based. To be noted: IGR39, MTX 72 h, 1 μM. As to the method:
FIGS. 1A-J. Methotrexate up-regulates the expression of MITF. A, The MITF rheostat, and the two-step strategy for melanoma therapy: Drug A induces MITF, driving cells to be sensitive to Drug B. B, MTX (1 μM) increases MITF mRNA determined using quantitative and conventional RT-PCR from indicated cell lines. […] C, MTX (1 μM) induces MITF protein assayed by western blotting (WB) (*P<0.05). D, Immunofluorescence of control or MTX-treated (3 h) 501 MEL cells using anti-MITF and DAPI. E, Matrigel assay of control and MTX-treated SKMEL-28 cells (48 h, 1 μM) and IGR39 (72 h, 1 μM) cells. […] Scale bar refers to all panels. F, Chromatin immunoprecipitation on TYR and Pmel17 genes of control and MTX-treated (4 h, 1 μM) SK-MEL-28 cells with qRT-PCR after immunoprecipitation with IgG, or MITF and HDAC3 antibodies. Error bars indicate standard deviations of triplicates; experiment reproduced four times with similar results. G, Scanning electron micrographs of control and MTX-treated (1 μM, 24 h) SK-MEL-28 cells. H, Semiquantitative RT PCR of TYR, TYRP1, Pmel17, MART1, and Rab27a mRNA. […]
Invasion assays were performed using a cell invasion assay kit (BD Bioscience). […] The invading cells were stained and quantified measuring the surface occupied by stained cells with a cell counter plug-in of the Image J software.

In assay [2] the test system is melanoma (SK-MEL-28, G361) cell lines. Briefly: MTX/TMECG synergy titration (apoptosis), melanoma cell lines. Format: cell-based, human. As to conditions: apoptosis after 4 days. The method, then:
FIGS. 5A-D. The effects of MTX and/or TMECG on the growth of melanoma cell lines. A, Viability was determined by the MTT assay. Cells were treated with vehicle only (•), 10 μM TMECG ( ), 1 μM MTX (▴) or with a combination of 1 μM MTX+10 μM TMECG (▾). Table outlines p53, BRAF, NRAS, and PTEN status with specific amino acid substitutions. […] B, MTX/TMECG synergy test for melanoma and non-melanoma cancer cells in which drugs were combined in 6×6 matrices where the concentration of one drug was increased along each axis. The lowest concentration was 0 and the highest concentration was chosen close to the IC50 for each drug in each assayed cell line. Apoptosis was determined after 4 days of treatment. Data were obtained in triplicate in two independent experiments. […]
The induction of apoptosis was assessed by performing cytoplasmic histone-associated DNA fragmentation using a kit from Roche Diagnostics (Barcelona, Spain). […] The amount of nucleosomes is photometrically quantified at 405 nm by the peroxidase activity retained in the immunocomplexes. Apoptosis was defined as the specific enrichment of mono- and oligonucleosomes in the cytoplasm and was calculated by dividing the absorbance of treated samples by the absorbance of untreated samples after correcting for the number of cells. […]

For `CN(Cc1cnc2nc(N)nc(N)c2n1)c1ccc(C(=O)N[C@@H](CCC(=O)O)C(=O)O)cc1` [MTX, methotrexate], the invasiveness result in assay [1] is “eliminated invasiveness”. In addition, in assay [2], the “sensitivity to MTX alone, melanoma versus non-melanoma lines” value was “substantially less sensitive”.

These data come from patent US20150231109A1, “COMBINATIONS (CATECHINS AND METHOTREXATE) FOR USE IN THE TREATMENT OF MELANOMAS” (UNIVERSIDAD DE MURCIA, priority 2012, published 2015).
